Measurements published in article PMC9457593, “Design, Synthesis, and Evaluation of New Mesenchymal–Epithelial Transition Factor (c-Met) Kinase Inhibitors with Dual Chiral Centers” (Molecules, 2022).
“And” between values parts separate entries of the source, which are not always exact repeats. Equal values may be shown once. Read-outs that look alike come from different tables or passages of the source.

Legend:
MHCC97H cells [1] = tested on: MHCC97H cells; parameters: method as in PMID 29393886; conditions: compounds bearing a single chiral center, from our previous work; read-out: MHCC97H Cell IC50; cited from earlier work
c-Met kinase = target: T1, c-Met kinase (Homo sapiens, UniProt P08581); assay: c-Met kinase inhibition assay (Mobility Shifting Assay); assay type: biochemical; conditions: mean ± SD of three independent experiments
T1 construct: purchased Carna Bioscience 08-151
Method: The kinase inhibition assay was carried out according to the principle of MSA (Mobility Shifting Assay) detection. […] Using triple dilution method, 10 gradient concentration groups were received. Varying concentrations of compounds were transported in 384-well plates, and 100% DMSO was set as negative control. After adding kinase buffer, the 384-well plates were centrifuged and vortexed, followed by 10 min of incubation. […] Finally, adding stop solution ended kinase reaction, and the conversion% was detected by a microplate reader (Caliper EZ Reader II, Perkin Elmer, Waltham, Massachusetts, […]). The statistics were analyzed by GraphPad Prism 8, using log (inhibitor) vs. response–variable slope to fit the dose–effect curve.

MHCC97H cells [2] = assay: MTT antiproliferative assay; assay type: cell-based, human
From the text: On the basis of our former study, compounds 12a-b were designed and first screened for their antiproliferative activity against the c-Met-driven human hepatocarcinoma cells (MHCC97H), using a standard MTT assay. Tepotinib was used as a positive control.

AKT = assay: Immunofluorescence staining and Western blotting of AKT and p-AKT in MHCC97H cells; assay type: cell-based, human
Method: (§1) MHCC97H cells were seeded into confocal dishes and then treated with vehicle control (1‰ DMSO) and compound (R, S)-12a (2.5 nM). Cells were washed thrice with PBS, fixed with 4% paraformaldehyde for 15 min, and punched with 0.2% triton X100 and then blocked with 500 μL of blocking buffer at room temperature for 1 h. Cells were incubated with a primary monoclonal antibody (c-Met, p-c-Met, AKT, and p-AKT) at 4 °C for 12 h and then washed with PBS thrice, followed by incubation with the fluorescence secondary antibody (Alexa Fluor 488-labeled Goat Anti-Mouse IgG (H + L)-A0428) and labeling of nuclei by Hoechst33342 (MA0126, Meilunbio, Dalian, Liaoning, China). The cells were finally visualized by a confocal microscope (Carl Zessi Microscopy LSM 880, Oberkochen, Germany). The average fluorescence intensity of FITC channel was analyzed by Image J, and the illustration was drafted by GraphPad Prism8.
(§2) MHCC97H cells were then homogenized with lysis buffer. The protein concentrations were detected using a BCA Protein Assay Kit (Pierce BCA Protein Assay Kit 23227, Thermo, Waltham, MA, USA), and their extracts were reconstituted within loading buffer (Beyotime, Shanghai, China) and inactivated for 5 min at 100 °C. Subsequently, proteins (20 μg) were fractionated by 10% SDS-PAGE and transferred to PVDF membranes. Then, PVDF membranes were blocked in 10% skimmed milk and incubated with the appropriate dilution of primary antibodies, including c-Met (Abcam, Cambridge, UK), p-c-Met (Abcam), AKT (Cell Signaling Technology), p-AKT (Cell Signaling Technology), and GAPDH (Cell Signaling Technology, […], MA, USA). The above primary antibodies were then reacted with HRP-conjugated secondary antibody, and immunoreactive bands were visualized by an ECL Detection Reagent (36208ES60, Yeasen, Shanghai, China) and were estimated through densitometry with a chemiluminescence imaging system (Tanon, Shanghai, China). Intensities of the blots were quantified with Image J and analyzed by GraphPad Prism 8.

MHCC97H cells [3] = assay: Hoechst 33342 staining for apoptosis morphology; assay type: cell-based, human; conditions: 1, 5, and 10 nM, 48 h, vs vehicle control
From the text: Tumor cell apoptosis is an important stage in the effective treatment of cancer. To evaluate the capacity of compound (R, S)-12a to induce apoptosis in human cancer cell lines, we used Hoechst 33342 staining to investigate the effect of compound (R, S)-12a on MHCC97H cells. Hoechst 33342 staining was used to examine apoptosis through morphological observation.

MHCC97H cells [4] = assay: Annexin V-FITC/PI apoptosis analysis (flow cytometry); assay type: cell-based, human; conditions: 48 h
Method: MHCC97H cells were incubated with varying concentrations of compound (R, S)-12a or diluent (1‰ DMSO, as a negative control) for 48 h. The cells were harvested and washed with PBS twice. Then, 500 μL of binding buffer suspended cells were added. The cells were stained with 5 μL of Annexin V-FITC and 10 μL of PI (KGA105, KeyGEN, BioTECH, Nanjing, Jiangsu, China). Then, the cells were incubated at room temperature for 15 min without light exposure. Apoptosis was analyzed using a CytoFLXE flow cytometer (BECKMAN COLTER, Brea, CA, USA).

[5] = tested on: HaCat (human immortalized keratinocytes); assay: Toxicity towards normal cells (HaCat); conditions: for IC50: Homo sapiens, HaCaT, read-out: IC50 on HaCat
MHCC97H cells [6] = assay: Cell cycle analysis (PI, flow cytometry); assay type: cell-based, human; conditions: 10 nM, 48 h
Method: MHCC97H cells were incubated with varying concentrations of compound (R, S)-12a or 1‰ DMSO for 48 h. The cells were collected by centrifugation, washed with PBS, and fixed in 70% ice-cold ethanol at 4 °C for 12 h. After the removal of ethanol, each sample was re-suspended in 500 μL of staining buffer containing 50 μL of RNase A and 450 μL of propidium iodide (KGA511, KeyGEN, BioTECH, Nanjing, Jiangsu, China) and incubated at room temperature, avoiding light exposure for 30 min. The DNA content of the cells was measured using a CytoFLXE flow cytometer (BECKMAN COLTER, Brea, CA, USA).

MHCC97H cells [7] = assay: Wound healing (cell scratch) assay; assay type: cell-based, human; conditions: 1, 2, and 3 nM; 0, 6, 12, and 24 h; vs vehicle control
Method: MHCC97H cells were seeded in a 6-well plate and cultured for 24 h; subsequently, the confluent monolayer cells were scratched with a 10 μL pipette tip. After that, the wound was washed with PBS thrice to remove the non-adherent cell debris. In addition, each petri dish had media containing (R, S)-12a in gradient concentrations (1, 2, and 3 nM) added. At 0, 6, 12, and 24 h, changes of cell scratch in area were photographed by phase contrast microscope and finally measured and analyzed by Image J.

c-Met = assay: Immunofluorescence staining and Western blotting of c-Met and p-c-Met in MHCC97H cells; assay type: cell-based, human
Method: as §1, §2

MHCC-97H tumor cells = assay: Tumor cell morphology; assay type: cell-based, human; conditions: 10 and 50 nM
Method: Co-incubation with compound (R, S)-12a (1, 10, and 50 nM) led to a significant reduction in […] cell viability. Red arrowheads indicated distinct morphological changes, such as intracytoplasmic particles increasing, the cell shape change, and loss of adherent property. […] Aggregation, lysis, and cell debris also occurred.

[8] = tested on: LO2 (human normal liver cells); assay: Toxicity towards normal cells (LO2); conditions: for IC50: Homo sapiens, read-out: IC50 on LO2
[9] = MTT, 48 h, mean ± SD of three independent experiments, read-out: MHCC97H Cell IC50
[10] = immunofluorescence, 2.5 nM, 48 h

T1 sequence (P08581 956-1390 limits assumed): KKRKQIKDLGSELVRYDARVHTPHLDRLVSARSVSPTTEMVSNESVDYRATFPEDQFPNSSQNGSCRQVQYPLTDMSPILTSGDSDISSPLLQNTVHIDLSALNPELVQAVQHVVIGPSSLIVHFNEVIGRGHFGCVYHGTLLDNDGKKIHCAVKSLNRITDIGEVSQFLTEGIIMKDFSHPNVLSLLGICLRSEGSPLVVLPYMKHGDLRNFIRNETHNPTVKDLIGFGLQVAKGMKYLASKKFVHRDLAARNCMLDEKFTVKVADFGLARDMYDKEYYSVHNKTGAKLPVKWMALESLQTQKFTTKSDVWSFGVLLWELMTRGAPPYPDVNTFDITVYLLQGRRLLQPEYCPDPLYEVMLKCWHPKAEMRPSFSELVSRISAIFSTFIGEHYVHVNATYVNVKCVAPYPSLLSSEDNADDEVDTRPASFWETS

**Q.** Which IC50 (MHCC97H cells [1]) does the source give for `CC(c1cccc(-c2ncc(OCC3CCN(C)CC3)cn2)c1)n1nc(-c2cccc(C#N)c2)ccc1=O` (racemic) [(±)-5b] here?
**A.** 35.3 ± 11 nM

**Q.** Which IC50 (MHCC97H cells [1]) does the source give for `C[C@H](c1cccc(-c2ncc(OCC3CCN(C)CC3)cn2)c1)n1nc(-c2cccc(C#N)c2)ccc1=O` [(R)-5b] here?
**A.** 3.7 ± 1 nM

**Q.** For `CC(Oc1cnc(-c2cccc(C(C)n3nc(-c4cccc(C#N)c4)ccc3=O)c2)nc1)C1CCN(C)CC1` [(R, R)-12a], which IC50 (c-Met kinase) is on record?
**A.** 28.7 ± 5 nM

**Q.** And the IC50 (MHCC97H cells [2]; [9])?
**A.** 30 ± 8 nM

**Q.** Which “phosphorylation level of AKT protein” value (AKT; Western blot, dose-dependent) does the source give for `CC(Oc1cnc(-c2cccc(C(C)n3nc(-c4cccc(C#N)c4)ccc3=O)c2)nc1)C1CCN(C)CC1` [(R, S)-12a] here?
**A.** decrease

**Q.** What about the “fluorescence intensity of AKT (total AKT protein)” value (AKT; [10]) of the same compound?
**A.** did not change significantly

**Q.** And the “fluorescence intensity of p-AKT” value (AKT; [10])?
**A.** decreased significantly

**Q.** And the “nuclear morphology by Hoechst 33342 staining” value (MHCC97H cells [3])?
**A.** obvious nucleolar pyknosis, DNA fragmentation, and chromatin condensation

**Q.** And the “proportions of early and late apoptosis cells” value (MHCC97H cells [4]; 1 nM)?
**A.** 8.9%

**Q.** What about the “proportions of early and late apoptosis cells” value (MHCC97H cells [4]; 5 nM) of the same compound?
**A.** 33.3%

**Q.** What about the IC50 (c-Met kinase) of the same compound?
**A.** 1.56 ± 1 nM

**Q.** What about the “Selectivity Index (HaCat vs MHCC-97H)” value [5] of the same compound?
**A.** 953.5

**Q.** And the IC50 [5]?
**A.** 1910 ± 250 nM

**Q.** And the “proportion of cells in the G1 phase” value (MHCC97H cells [6])?
**A.** 70.99%

**Q.** What about the “proportion of cells in the G2/M phases” value (MHCC97H cells [6]) of the same compound?
**A.** 12.44%

**Q.** What about the wound closure (MHCC97H cells [7]) of the same compound?
**A.** significantly suppressed wound closure

**Q.** What about the “phosphorylation level of c-Met” value (c-Met; Western blot, dose-dependent) of the same compound?
**A.** decrease

**Q.** And the “fluorescence intensity of c-Met (total c-Met protein)” value (c-Met; [10])?
**A.** did not change significantly

**Q.** What about the “fluorescence intensity of p-c-Met” value (c-Met; [10]) of the same compound?
**A.** decreased significantly

**Q.** And the tumor cell morphology (MHCC-97H tumor cells)?
**A.** the cells shrank and floated and no longer adhered to the wall

**Q.** And the “Selectivity Index (LO2 vs MHCC-97H)” value [8]?
**A.** 5750.0

**Q.** And the IC50 [8]?
**A.** 11500 ± 1530 nM

**Q.** And the IC50 (MHCC97H cells [2]; Homo sapiens, MHCC97H, Table 2, read-out: IC50 on MHCC-97H)?
**A.** 2 ± 2 nM

**Q.** What about the IC50 (MHCC97H cells [2]; [9]) of the same compound?
**A.** 2.1 nM

**Q.** Which IC50 (MHCC97H cells [1]) does the source give for `C[C@@H](c1cccc(-c2ncc(OCC3CCN(C)CC3)cn2)c1)n1nc(-c2cccc(C#N)c2)ccc1=O` [(S)-5b] here?
**A.** 118 ± 56 nM

**Q.** Which IC50 (c-Met kinase) does the source give for `CC(Oc1cnc(-c2cccc(C(C)n3nc(-c4cccc(C#N)c4)ccc3=O)c2)nc1)C1CCN(C)CC1` [(S, R)-12a] here?
**A.** 195 ± 73.2 nM

**Q.** What about the IC50 (MHCC97H cells [2]; [9]) of the same compound?
**A.** 205 nM and 210 nM

**Q.** With `CC(Oc1cnc(-c2cccc(C(C)n3nc(-c4cccc(C#N)c4)ccc3=O)c2)nc1)C1CCN(C)CC1` [(S, S)-12a] as the compound, how does the IC50 (c-Met kinase) read?
**A.** 35.8 ± 6.8 nM

**Q.** What about the IC50 (MHCC97H cells [2]; [9]) of the same compound?
**A.** 48.3 nM and 48 nM

**Q.** For `CN1CCC(COc2cnc(-c3cccc(Cn4nc(-c5cccc(C#N)c5)ccc4=O)c3)nc2)CC1` [Tepotinib, tepotinib, reference compound], which IC50 [5] is on record?
**A.** 1950 ± 349 nM

**Q.** And the IC50 [8]?
**A.** 8730 ± 841 nM

**Q.** What about the IC50 (MHCC97H cells [2]; Homo sapiens, MHCC97H, 48 h, read-out: MHCC97H Cell IC50) of the same compound?
**A.** 13 ± 2 nM

**Q.** And the IC50 (MHCC97H cells [2]; Homo sapiens, MHCC97H, read-out: IC50 on MHCC-97H)?
**A.** 13 ± 2 nM

**Q.** With “(R,R)-3-(1-(1-(3-(5-(1-((1-Methyl-1,2,3,6-tetrahydropyridin-4-yl)oxy)ethyl)pyrimidin-2-yl)phenyl)ethyl)-6-oxo-1,6-dihydropyridazin-3-yl)benzonitrile [(R, R)-12b]” as the compound, how does the IC50 (MHCC97H cells [2]; [9]) read?
**A.** 130 ± 38 nM

**Q.** For “(R,S)-3-(1-(1-(3-(5-(1-((1-Methyl-1,2,3,6-tetrahydropyridin-4-yl)oxy)ethyl)pyrimidin-2-yl)phenyl)ethyl)-6-oxo-1,6-dihydropyridazin-3-yl)benzonitrile [(R, S)-12b]”, which IC50 (MHCC97H cells [2]; [9]) is on record?
**A.** 9 ± 5 nM

**Q.** With “(S,R)-3-(1-(1-(3-(5-(1-((1-Methyl-1,2,3,6-tetrahydropyridin-4-yl)oxy)ethyl)pyrimidin-2-yl)phenyl)ethyl)-6-oxo-1,6-dihydropyridazin-3-yl)benzonitrile [(S, R)-12b]” as the compound, how does the IC50 (MHCC97H cells [2]; [9]) read?
**A.** 616 ± 78.2 nM

**Q.** With “(S,S)-3-(1-(1-(3-(5-(1-((1-Methyl-1,2,3,6-tetrahydropyridin-4-yl)oxy)ethyl)pyrimidin-2-yl)phenyl)ethyl)-6-oxo-1,6-dihydropyridazin-3-yl)benzonitrile [(S, S)-12b]” as the compound, how does the IC50 (MHCC97H cells [2]; [9]) read?
**A.** 136 ± 52 nM
